Laboratory results from patent publication US7138361B2, “Herbicidal heterocycles” (E. I. du Pont de Nemours and Company, priority 2000, dated 2006).

Columns and labels:
Assay type in all cases: in vivo
Nightshade = test: Test C preemergence
Sunflower [1] = test: Test C preemergence; settings: Rate 125 g/ha; scale 0 to 100, 0 no effect, 100 complete control
[2] = test system: Surinam grass (Brachiaria decumbens); test: Test C preemergence
How it was run: (§1)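 Response scores (0 no effect to 100 complete control) came from visual comparison with untreated controls 12 to 14 days after treatment. Preemergence application was made to seeded soil; postemergence, to plants at the 1- to 4-leaf stage.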

[3] = test system: bermudagrass (Cynodon dactylon); test: Test C preemergence
How it was run: as §1

[4] = test system: cocklebur (Xanthium strumarium); test: Test C preemergence
How it was run: as §1

[5] = test system: common ragweed (Ambrosia elatior); test: Test C preemergence
How it was run: as §1

corn (Zea mays) = test: Test C preemergence
How it was run: as §1

[6] = test system: crabgrass (Digitaria sanguinalis); test: Test C preemergence
How it was run: as §1

[7] = test system: giant foxtail (Setaria faberii); test: Test C preemergence
How it was run: as §1

[8] = test system: goosegrass (Eleusine indica); test: Test C preemergence
How it was run: as §1

[9] = test system: johnsongrass (Sorghum halepense); test: Test C preemergence
How it was run: as §1

kochia (Kochia scoparia) = test: Test C preemergence
How it was run: as §1

[10] = test system: lambsquarters (Chenopodium album); test: Test C preemergence
How it was run: as §1

[11] = test system: morningglory (Ipomoea hederacea); test: Test C preemergence
How it was run: as §1

[12] = test system: pigweed (Amaranthus retroflexus); test: Test C preemergence
How it was run: as §1

soybean (Glycine max) = test: Test C preemergence
How it was run: as §1

[13] = test system: velvetleaf (Abutilon theophrasti); test: Test C preemergence
How it was run: as §1

[14] = test system: woolly cupgrass (Eriochloa villosa); test: Test C preemergence
How it was run: as §1

[15] = test system: yellow nutsedge (Cyperus esculentus); test: Test C preemergence
How it was run: as §1

[16] = test system: barnyardgrass (Echinochloa crus-galli); test: Test C flooded paddy test; settings: for Barnyardgrass plant response rating: Flooded Paddy, scale 0 to 100, 0 no effect, 100 complete control; for Plant response rating, Barnyardgrass: flooded paddy test, scale 0 to 100 (0 no effect, 100 complete control)
How it was run: (§2)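 Visually assessed vs untreated controls 12–14 d post-treatment (greenhouse). Flooded paddy plants were at the 2-leaf stage; scale 0 = no effect, 100 = complete control.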

rice (Oryza saliva) = test: Test C flooded paddy test; settings: for Rice plant response rating: Flooded Paddy, scale 0 to 100, 0 no effect, 100 complete control; for Plant response rating, Rice: flooded paddy test, scale 0 to 100 (0 no effect, 100 complete control)
How it was run: as §2

Sunflower [17] = test: Test C preemergence; settings: Rate 500 g/ha, visual evaluation after 12 to 14 days
[18] = Rate 125 g/ha, scale 0 to 100, 0 no effect, 100 complete control
[19] = preemergence, Rate 62 g/ha, scale 0 to 100
[20] = preemergence, Rate 500 g/ha, visual evaluation after 12 to 14 days
[21] = preemergence, Rate 250 g/ha, scale 0 to 100, 0 no effect, 100 complete control

CCC(CC)c1ccn(C2CCN(c3cccc(OC)c3)C2=O)n1 (stereo not drawn) [Compound 96]
Plant response rating, Nightshade (Nightshade; Rate 62 g/ha, scale 0 to 100): 0
Plant response rating, Nightshade (Nightshade; [18]): 10
Plant response rating, Nightshade (Nightshade; Rate 250 g/ha, scale 0 to 100, 0 no effect, 100 complete control): 60
Plant response rating, Sunflower (Sunflower [1]): 0
Plant response rating, Surinam grass [2, 18]: 90
Plant response rating, Surinam grass [2, 19]: 50
Plant response rating (0 to 100), Surinam grass [2, 20]: 100
Plant response rating, Surinam grass [2, 21]: 100
Plant response rating, Bermudagrass [3, 18]: 100
Plant response rating, Bermudagrass [3, 19]: 100
Plant response rating (0 to 100 where 0 is no effect and 100 is complete control), Bermudagrass [3, 20]: 100
Plant response rating, Bermudagrass [3, 21]: 100
Plant response rating, Cocklebur [4, 18]: 20
Plant response rating, Cocklebur [4, 19]: 0
Plant response rating (0 to 100), Cocklebur [4, 20]: 30
Plant response rating, Cocklebur [4, 21]: 30
Plant response rating, Ragweed, Common [5, 18]: 0
Plant response rating, Ragweed, Common [5, 19]: 0
Plant response rating (0 to 100), Ragweed, Common [5, 20]: 70
Plant response rating, Ragweed, Common [5, 21]: 40
Plant response rating, Corn (corn (Zea mays); [18]): 20
Plant response rating, Corn (corn (Zea mays); [19]): 0
Plant response rating (0 to 100), Corn (corn (Zea mays); [20]): 50
Plant response rating, Corn (corn (Zea mays); [21]): 40
Plant response rating, Crabgrass [6, 18]: 100
Plant response rating, Crabgrass [6, 19]: 100
Plant response rating (0 to 100), Crabgrass [6, 20]: 100
Plant response rating, Crabgrass [6, 21]: 100
Plant response rating, Foxtail, Giant [7, 18]: 0
Plant response rating, Foxtail, Giant [7, 19]: 100
Plant response rating (0 to 100), Foxtail, Giant [7, 20]: 100
Plant response rating, Foxtail, Giant [7, 21]: 0
Plant response rating, Goosegrass [8, 18]: 100
Plant response rating, Goosegrass [8, 19]: 100
Plant response rating (0 to 100), Goosegrass [8, 20]: 100
Plant response rating, Goosegrass [8, 21]: 100
Plant response rating, Johnsongrass [9, 18]: 30
Plant response rating, Johnsongrass [9, 19]: 20
Plant response rating (0 to 100), Johnsongrass [9, 20]: 70
Plant response rating, Johnsongrass [9, 21]: 50
Plant response rating, Kochia (kochia (Kochia scoparia); [18]): 100
Plant response rating, Kochia (kochia (Kochia scoparia); [19]): 100
Plant response rating (0 to 100), Kochia (kochia (Kochia scoparia); [20]): 100
Plant response rating, Kochia (kochia (Kochia scoparia); [21]): 100
Plant response rating, Lambsquarters [10, 18]: 100
Plant response rating, Lambsquarters [10, 19]: 100
Plant response rating (0 to 100), Lambsquarters [10, 20]: 100
Plant response rating, Lambsquarters [10, 21]: 100
Plant response rating, Morningglory [11, 18]: 0
Plant response rating, Morningglory [11, 19]: 0
Plant response rating (0 to 100), Morningglory [11, 20]: 20
Plant response rating, Morningglory [11, 21]: 20
Plant response rating, Pigweed [12, 18]: 0
Plant response rating, Pigweed [12, 19]: 0
Plant response rating (0 to 100), Pigweed [12, 20]: 50
Plant response rating, Pigweed [12, 21]: 0
Plant response rating, Soybean (soybean (Glycine max); [18]): 0
Plant response rating, Soybean (soybean (Glycine max); [19]): 0
Plant response rating (0 to 100), Soybean (soybean (Glycine max); [20]): 70
Plant response rating, Soybean (soybean (Glycine max); [21]): 50
Plant response rating, Velvetleaf [13, 18]: 0
Plant response rating, Velvetleaf [13, 19]: 0
Plant response rating (0 to 100), Velvetleaf [13, 20]: 40
Plant response rating, Velvetleaf [13, 21]: 30
Plant response rating, Cupgrass, Woolly [14, 18]: 95
Plant response rating, Cupgrass, Woolly [14, 19]: 60
Plant response rating (0 to 100), Cupgrass, Woolly [14, 20]: 100
Plant response rating, Cupgrass, Woolly [14, 21]: 100
Plant response rating, Nutsedge [15, 18]: 0
Plant response rating, Nutsedge [15, 19]: 0
Plant response rating (0 to 100), Nutsedge [15, 20]: 70
Plant response rating, Nutsedge [15, 21]: 10
Barnyardgrass plant response rating ([16]; Rate 250 g/ha): 100
Barnyardgrass plant response rating ([16]; Rate 500 g/ha): 100
Plant response rating, Barnyardgrass ([16]; Rate 62 g/ha): 80
Plant response rating, Barnyardgrass ([16]; Rate 125 g/ha): 80
Rice plant response rating (rice (Oryza saliva); Rate 250 g/ha): 50
Rice plant response rating (rice (Oryza saliva); Rate 500 g/ha): 60
Plant response rating, Rice (rice (Oryza saliva); Rate 62 g/ha): 0
Plant response rating, Rice (rice (Oryza saliva); Rate 125 g/ha): 0
Plant response rating (0 to 100), Sunflower (Sunflower [17]): 50
